Test results published in PubChem BioAssay (NCI).
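Five concentrations, 48 hours, 96-well plates. At the TGI there is no net growth.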

Assays:
Experiment in all cases: NCI tumour cell line growth inhibition, 48 h
[1] = tested on: UACC-62 melanoma
[2] = tested on: RPMI-8226 leukemia
[3] = tested on: M14 melanoma
[4] = tested on: COLO 205 colon
[5] = tested on: NCI-H522 lung
[6] = tested on: HCT-116 colon
[7] = tested on: SN12C renal
[8] = tested on: HCT-15 colon
[9] = tested on: MDA-MB-435
[10] = tested on: OVCAR-3 ovarian
[11] = tested on: BT-549 breast
[12] = tested on: SNB-75 CNS
[13] = tested on: EKVX NSCLC
[14] = tested on: UACC-257 melanoma
[15] = tested on: TK-10 renal
[16] = tested on: MCF7 breast
[17] = tested on: MDA-N
[18] = tested on: MDA-MB-231 breast
[19] = tested on: HOP-92 NSCLC
[20] = tested on: LOX IMVI melanoma

Compound	TGI [1] [µM]	TGI [2] [µM]	TGI [3] [µM]	TGI [4] [µM]	TGI [5] [µM]	TGI [6] [µM]	TGI [7] [µM]	TGI [8] [µM]	TGI [9] [µM]	TGI [10] [µM]	TGI [11] [µM]	TGI [12] [µM]	TGI [13] [µM]	TGI [14] [µM]	TGI [15] [µM]	TGI [16] [µM]	TGI [17] [µM]	TGI [18] [µM]	TGI [19] [µM]	TGI [20] [µM]
CN(/N=C/c1cccs1)c1ccc([N+](=O)[O-])cc1[N+](=O)[O-]	> 100	> 100	> 100	> 100	> 100	> 100	> 100	> 100	> 100	> 100	> 100	> 100	> 100	> 100	> 100	> 100	> 100	> 100		
CC(C)CNC(=O)Cn1c2c(c3ccccc31)CCCC2	> 100	> 100	> 100	> 100		> 100	> 100	> 100	> 100	> 100	> 100		> 100	> 100	> 100	> 100	> 100		> 100	> 100
CC1CC/C(=C\c2ccc(N(C)C)cc2)C(=O)/C1=C/c1ccc(N(C)C)cc1 (stereo not given)	> 100		> 100	> 100	> 100	> 100	> 100	> 100	> 100	> 100	> 100	> 100	> 100	> 100	> 100	> 100	> 100	> 100		> 100
NC1CNC(=O)c2cscc21 (stereo not given)	> 100	> 100	> 100	> 100	> 100	> 100	> 100	> 100	> 100	> 100	> 100		> 100	> 100		> 100	> 100		> 100	> 100
Cc1cc(C)c(C)c(-n2[nH]c(=O)n(C)c2=O)c1C	> 100	> 100	> 100	> 100		> 100	> 100	> 100	> 100	> 100	> 100		> 100	> 100	> 100	> 100	> 100	> 100	> 100	> 100
NC(N)=NC(N)=Nc1c(F)c(F)c(F)c(F)c1F	> 100	> 100	48.4	> 100	> 100	> 100	> 100	> 100	> 100	> 100	> 100	> 100	> 100	> 100	> 100	> 100	> 100	> 100	> 100	
Cc1nnc2sc(-c3ccc(-c4ccccc4Cl)o3)nn12	> 100	60	> 100	> 100	78.4	44.2	> 100	86	44	84.7	60.3		> 100	> 100	> 100	> 100	40.6	> 100	> 100	53.2
COc1ccc(-c2c(C#N)c(S)n(C3OC(CO)C(O)C(O)C3O)c(=O)c2C#N)cc1 (stereo not given)	> 100	> 100	> 100		> 100		> 100	> 100	> 100	> 100	> 100	> 100		> 100	> 100	> 100	> 100	> 100		> 100
Nc1ccc(S(=O)(=O)c2ccc(NC(=O)c3cccnc3)cc2)cc1	> 100	> 100	> 100	> 100	> 100	> 100	> 100	> 100	> 100	> 100	> 100	> 100	> 100	> 100	> 100	> 100	> 100	> 100	> 100	> 100
Clc1ncnc2c1nc(C#Cc1ccccc1)n2Cc1ccccc1	> 100		53	45.8	36.7	> 100	60	36.6	43	21.6	49.8	92.2	29.3	74.7	> 100	> 100	53.8	71	59.9	28.3
COc1ccc(C2NC3=C(CCCC3)C3(C#N)C(=O)N=C(N)C23C#N)cc1 (stereo not given)	> 100	> 100	> 100	> 100	> 100	> 100	> 100	> 100	> 100		> 100		> 100	> 100	> 100	> 100	> 100	> 100	> 100	> 100
Nc1nnc(-c2ccco2)c(-c2ccco2)n1	> 100	> 100	> 100	> 100	> 100	> 100	> 100	> 100	> 100	> 100	> 100	> 100	> 100	> 100	> 100	> 100	> 100	> 100	> 100	
NCCCc1ccc2oc3ccccc3c2c1	31.9	70.7	30.1	32.8	40	29.7	31.9	36.4	29.1	31.5	37.2	30.6		32.1	30.4	34.2	29.6	33	43	39.9
Cn1c(COC(=O)NC2CCCCC2)c(COC(=O)NC2CCCCC2)c2ccc3cc(Cl)c(Cl)cc3c21	24.1		36.7	24.6		23.1	23.9	24.7	49.4	29.9	30.5	27.8	> 100	29	30.6	16.9	25.4	22.1	19.5	30.6
CN1C(=O)C(O)CC1c1cccc(F)c1 (stereo not given)	> 100	> 100	> 100	> 100	> 100	> 100	> 100	> 100	> 100	> 100	> 100	> 100	> 100	> 100		> 100	> 100	> 100	> 100	> 100
COc1cc(/C=C/C2=NN(c3cccc(S(=O)(=O)O)c3)C3(C2)C(Cl)C(=O)N3c2nc3ccccc3s2)ccc1O (stereo not given)	43.1	37.6	> 100	40.4	30.4	39.2	47.5	37.4	32.1		29.1	60	42.3	42.6	28.2	> 100	60.3	47.1	29.7	27.5
N#Cc1c2c([nH]c(=O)c1C#N)CCCC2	> 100		> 100	> 100		> 100	> 100	> 100	> 100	> 100	> 100	> 100	> 100	> 100	> 100	> 100	> 100	> 100	> 100	> 100
CCOC(=O)C(NC(=O)NC(C(=O)OCC)C(=O)OCC)C(=O)OCC	> 100	> 100	> 100		> 100	> 100	> 100	> 100	> 100	> 100	> 100		> 100		> 100	> 100	> 100		> 100	
O=C1N[C@@H]([C@H](CCCCCO)OC(=O)c2ccccc2)CO1	> 100	> 100				> 100	> 100	> 100	> 100	> 100	> 100	> 100	> 100	> 100	> 100	> 100	> 100	> 100	> 100	> 100
COC1OC(COC(=O)NCCCCC(=O)C(F)(F)F)C(O)C(O)C1O (stereo not given)	> 100	> 100	> 100	> 100		> 100	> 100	> 100	> 100	> 100	> 100	> 100		> 100	> 100	> 100	> 100	> 100	> 100	> 100
O=C1CC(CC(OCc2ccccc2)C(COCc2ccccc2)OCc2ccccc2)CC(=O)N1 (stereo not given)		> 100	> 100	39.6	61.7	> 100	> 100	> 100	85	> 100	49.8	> 100	92.8	> 100		> 100	82.4	> 100	86.1	> 100
O=C1C(N=Nc2ccc(-c3nc4ccccc4o3)cc2)NC(=S)N1c1ccccc1 (stereo not given)	> 100		> 100	> 100	> 100	> 100	> 100	> 100	> 100	64.3	> 100	> 100	> 100	> 100	> 100	> 100	> 100	> 100	> 100	> 100
O=C(NCCNCCO)N/N=C/c1ccc([N+](=O)[O-])cc1	> 100		> 100	> 100	> 100	> 100	> 100	> 100	> 100	> 100	> 100	98.5		> 100	> 100	> 100	> 100	> 100		
COc1ccc(/C=C(\NC(=O)c2ccccc2)C(=O)NN(C)c2ccnc3cc(Cl)ccc23)cc1OC		45.3	47.9	61	44.1	> 100	66.9	55.4	49.6	69.7	39.5	> 100	> 100	79.1	> 100	46.3	65.7	60.3	55.3	35.1
CSCC[C@H]1C(=O)N=C(N)N1C(=O)OCc1ccccc1	63.9	> 100		39.7	46.5	37.7	> 100	> 100	> 100	> 100	60.9	> 100	> 100	> 100	> 100	> 100	> 100	> 100		> 100
C1=NCCOCCN=Cc2ccccc2OCc2cccc(n2)COc2ccccc21	9.09	14	> 25	> 25	> 25	> 25	15.2	16.5	3.68	9.01	19.1	12.9	> 25	21.5	20.4	19.4	6.96	19.1	> 25	
